Measurements as given in patent publication EP1209147A1, “CARBOXYLIC ACID DERIVATIVES AND ADHESION MOLECULE INHIBITORS CONTAINING THE SAME AS THE ACTIVE INGREDIENT” (TORAY INDUSTRIES, INC., priority 1999, dated 2001).
Read-outs that look alike come from different tables or passages of the source.

Columns and labels:
[1] = biological target: VLA-4-IgG chimeric protein (Homo sapiens, UniProt P05556+P13612); test: Inhibition of binding between CS-1 peptide and VLA-4-IgG chimeric protein
Protocol: The adhesion-inhibition activity of the compound of the present invention against VLA-4 may be examined by using an adhesion assay system in which the adhesion between VLA-4-expressing cells such as Ramos cells and Jurkat cells, and fibronectin or a fragment thereof, e.g., a peptide containing CS-1 sequence (Gly Pro Glu Ile Leu Asp Val Pro Ser Thr) (hereinafter referred to as "CS-1 peptide") immobilized on an immunoplate is measured. Alternatively, a binding assay system in which the binding of the VLA-4 protein to the fibronectin or a fragment thereof such as CS-1 peptide immobilized on an immunoplate is measured may be employed. In the present invention, the inhibition assay of the compound is preferably measured by a binding assay system which measures the binding between a chimeric protein of VLA-4 and immunoglobulin (VLA-4-IgG chimeric protein) and CS-1 peptide (Japanese patent application No. H9-234544), although the method of measuring the inhibition activity is not restricted to this method. The term "VLA-4-IgG chimeric protein" herein means the heterodimer composite molecule in which a chimeric protein between α4 of VLA-4 and immunoglobulin (hereinafter referred to as "VLAα4·IgG chimeric protein), and a chimeric protein between β1 of VLA-4 and immunoglobulin (hereinafter referred to as "VLAβ1·IgG chimeric protein) are associated. As the immunoglobulin, although heavy chain or light chain of IgG, IgM or the like may be employed, in the present invention, IgG1 heavy chain is used. When testing the inhibition activity of the compound, it is preferred to preliminarily mix the VLA-4-IgG chimeric protein and the test compound.
Effects of Compounds for Inhibition of Binding Between CS-1 Peptide and VLA-4-IgG
A conjugate between a peptide (Gys Leu His Gly Pro Glu Ile Leu Asp Val Pro Ser Thr) containing CS-1 sequence and rabbit IgG (Sigma) was prepared by the reported method (Humphries, M.J. et al. J. Biol.Chem., 262, 6886-6892 (1987)). The obtained conjugate was diluted with phosphate buffer (hereinafter referred to as "PBS(-)", NISSUI) and the resulting solution was placed in wells of a 96-well immunoplate (NUNC) in an amount of 100 µl/well, followed by leaving the solution to stand at 4°C for 16 hours to immobilize the conjugate.
Then each well was washed twice with PBS(-), and a PBS solution containing 1% BSA heat-treated at 80°C for 10 minutes was placed in each well in an amount of 300 µl/well. The immunoplate was left to stand at 4°C for 3 hours, and then the solution in each well was removed by aspiration.
After preliminarily allowing each compound to react with VLA-4-IgG chimeric protein (100 µl) at room temperature for 20 minutes, the resulting solution was allowed to react with CS-1 peptide in each well at 30°C for 3 hours. Thereafter, non-bound VLA-4-IgG chimeric protein was removed by aspiration and each well was washed twice with 0.1% BSA-containing TBS buffer (150 mM NaCl,25 mM Tris-HCI, 1 mM MnCl2 pH 7.4). To the bound VLA-4-IgG chimeric protein, biotin-labeled anti-human IgG antibody (Vector) as an primary antibody was added, and then avidin-labeled horse radish peroxidase (Sigma) as a secondary antibody was added, and the reaction was allowed to occur. After the reaction, o-phenylenediamine as a substrate was added to color the solution, and the absorbance at 490 nm was measured. From the absorbance, the binding-inhibition activity of each test compound was determined.

Auricular Edema Model = test: Auricular edema model (IgE anti-DNP passive sensitization, DNFB induction); assay type: in vivo, BLAB/c mouse; details: at a dose of not more than 150 mg/kg; topically or systemically, totally 3 times
Protocol: To each BLAB/c mouse (female, 7 weeks old, JAPAN CHARLES RIVER), mouse IgE anti-DNP antibody (5 mg/kg, SEIKAGAKU CORPORATION) was intravenously administered to passively sensitize the mouse. Twenty four hours later, 20 µl of 0.38% 2,4- dinitrofluorobenzene (DNFB, Aldrich) dissolved in acetone:olive oil (4:1) was applied to the auricle of the sensitized mouse to induce inflammation. The thickness of the auricle was measured until 24 hours after the induction with Digimatic Indicator (Mitutoyo) and the ear swelling rate was calculated according to the following equation: Ear Swelling Rate (%) = (A - B)/B x 100 [formula] • A: Thickness of right auricle at 24 hours after induction • B: Thickness of right auricle before induction
Twenty four hours after the induction, the auricle was cut off and fixed with formalin. After the fixation, continuous sections of the auricle were prepared and stained by Luna staining. The number of eosinophils in each section was counted and the total of them was defined as the number of eosinophils accumulated in the auricle.
Compound No. 140 used as the test compound was dissolved in physiological saline and the solution was intravenously administered totally 3 times, i.e., at the time of sensitization, at 8 hours and 24 hours after sensitization, at a dose of 400 mg/kg per each time. Further, to examine the effect of the compound when applied to the auricle, the compound was dissolved in ethanol, and the solution was applied to the auricle totally twice, i.e., at 8 hours after sensitization and at 1 hour before the induction, at a dose of 0.3 mg/ear. To the background group and the control group, physiological saline was intravenously administered and ethanol was applied, respectively. The experiment was carried out using 4 to 6 mice in each group. The results are shown in terms of mean ± standard error.
Twenty four hours after the induction, the auricle was cut off and fixed with formalin. After the fixation, continuous sections of the auricle were prepared and stained by Luna staining. The number of eosinophils in each section was counted. Compound No. 143 used as the test compound was dissolved in physiological saline and the solution was topically or systemically administered totally 3 times, i.e., at the time of sensitization, at 8 hours and 24 hours after sensitization. The experiment was carried out using 4 to 6 mice in each group. The results are shown in terms of mean ± standard error.

Mouse Asthma Model = test: Mouse asthma model (OVA/Alum sensitization, OVA inhalation, airway anaphylaxis and BALF eosinophils); assay type: in vivo, BLAB/c mouse; details: at a dose of not more than 150 mg/kg, topically or systemically; for accumulation of eosinophils to the lung: BALF on DAY-31; for progress of airway anaphylaxis: DAY-31
Protocol: A mixed solution containing aluminum hydroxide gel (Alum) on which ovalbumin (hereinafter "OVA") was adsorbed (20 ∝g OVA/2mg Alum/200 ∝l physiological saline) was intraperitoneally administered to each BLAB/c mouse (female, 7 weeks old, JAPAN CHARLES RIVER) at a dose of 200 ∝l ([…]) per time on DAY-1 and DAY-14 to sensitize the mouse. Then each mice was made to aspire 2% OVA dissolved in physiological saline on DAY-28, 29 and 30 to induce inflammation. Compound Nos. 143 and 236 used as the test compounds were dissolved in physiological saline and each solution was topically or systemically administered at 30 minutes before induction by OVA, and twice a day after induction.
On DAY-31, development of airway anaphylaxis was measured using a non-restrictive chamber (BUXCO). Then the bronchus of each mouse was incised and the bronchus and alveoli were washed (BAL) with 0.7 ml of physiological saline. After the washing, the washing fluid (BALF) of the bronchus and alveoli was recovered and centrifuged. The leukocytes contained in the BALF were subjected to site spin to prepare a smear specimen. After staining the specimen by May-Giemsa staining method, the leukocytes were grouped and counted under microscope to determine the number of eosinophils. The experiment was carried out using 6 to 8 mice in each group. The results are shown in terms of mean ± standard error.

superoxide = test: Radical scavenger action (superoxide from xanthine and xanthine oxidase); assay type: biochemical; details: luminescence at 380 nm, 10 to 60 seconds after xanthine oxidase addition
Protocol: The radical scavenger action of the compounds was measured using the amount of the superoxide as an index, which is produced when xanthine and xanthine oxidase are reacted. First, 1 mM of xanthine (SIGMA) dissolved in Hanks buffer solution (GIBCO), 2 mM dietylenetriamine-N,N,N',N"-pentaacetic acid (DOJIN) and 40 µM 2-methyl-6-phenyl-3,7-dihydroimidazo[1,2-a]pyrazin-3-one (TOKYO KASEI KOGYO) dissolved in distilled water when use were mixed. Further, 0.3 U/ml xanthine oxidase (BMY) dissolved in Hanks buffer when use was added. Luminescence intensity at 380 nm from 10 seconds to 60 seconds after the addition was measured by Lumat (Berthold, LB9501), and the measured amount was defined as the amount of produced superoxide. The test compound was added to the xanthine-containing solution before addition of the xanthine oxidase, and the resulting mixture was preincubated at 25°C for 5 minutes to examine its influence.

[2] = system: Jurkat cells (ATCC TIB-152); test: Influence on cell survival rate (alamarBlue); assay type: cell-based; details: cultured 24 hours with compound
Protocol: Jurkat cells (ATCC TIB-152) passaged on 10% fetal calf serum-containing RPMI medium (10F-RPMI, GIBCO) were suspended in the same medium to a cell population of 5 x 10^5 cells/ml, and the suspension was placed in each well of a 96-well plate (COSTAR) in an amount of 100 µl/well, followed by culturing the cells at 37°C under 5% CO2 for 24 hours. Then alamarBlue®(BioSource) was added in an amount of 10 µl/well and the cells were cultured for another 4 hours. Thereafter, the absorbance at 570 nm and 600 nm was measured with a microplate reader (BioRad model 3550). The test compound dissolved in 10F-RPMI was mixed with the Jurkat cells and the cells were cultured for 24 hours to examine its influence.

[3] = binding of VLA-4-IgG chimeric protein to immobilized CS-1 peptide; compound preincubated 20 minutes; read-out: Inhibition Activity(IC50 : nM)

VLA-4-IgG chimeric protein, sequence (P13612 with tags, fused parts or gaps limits assumed): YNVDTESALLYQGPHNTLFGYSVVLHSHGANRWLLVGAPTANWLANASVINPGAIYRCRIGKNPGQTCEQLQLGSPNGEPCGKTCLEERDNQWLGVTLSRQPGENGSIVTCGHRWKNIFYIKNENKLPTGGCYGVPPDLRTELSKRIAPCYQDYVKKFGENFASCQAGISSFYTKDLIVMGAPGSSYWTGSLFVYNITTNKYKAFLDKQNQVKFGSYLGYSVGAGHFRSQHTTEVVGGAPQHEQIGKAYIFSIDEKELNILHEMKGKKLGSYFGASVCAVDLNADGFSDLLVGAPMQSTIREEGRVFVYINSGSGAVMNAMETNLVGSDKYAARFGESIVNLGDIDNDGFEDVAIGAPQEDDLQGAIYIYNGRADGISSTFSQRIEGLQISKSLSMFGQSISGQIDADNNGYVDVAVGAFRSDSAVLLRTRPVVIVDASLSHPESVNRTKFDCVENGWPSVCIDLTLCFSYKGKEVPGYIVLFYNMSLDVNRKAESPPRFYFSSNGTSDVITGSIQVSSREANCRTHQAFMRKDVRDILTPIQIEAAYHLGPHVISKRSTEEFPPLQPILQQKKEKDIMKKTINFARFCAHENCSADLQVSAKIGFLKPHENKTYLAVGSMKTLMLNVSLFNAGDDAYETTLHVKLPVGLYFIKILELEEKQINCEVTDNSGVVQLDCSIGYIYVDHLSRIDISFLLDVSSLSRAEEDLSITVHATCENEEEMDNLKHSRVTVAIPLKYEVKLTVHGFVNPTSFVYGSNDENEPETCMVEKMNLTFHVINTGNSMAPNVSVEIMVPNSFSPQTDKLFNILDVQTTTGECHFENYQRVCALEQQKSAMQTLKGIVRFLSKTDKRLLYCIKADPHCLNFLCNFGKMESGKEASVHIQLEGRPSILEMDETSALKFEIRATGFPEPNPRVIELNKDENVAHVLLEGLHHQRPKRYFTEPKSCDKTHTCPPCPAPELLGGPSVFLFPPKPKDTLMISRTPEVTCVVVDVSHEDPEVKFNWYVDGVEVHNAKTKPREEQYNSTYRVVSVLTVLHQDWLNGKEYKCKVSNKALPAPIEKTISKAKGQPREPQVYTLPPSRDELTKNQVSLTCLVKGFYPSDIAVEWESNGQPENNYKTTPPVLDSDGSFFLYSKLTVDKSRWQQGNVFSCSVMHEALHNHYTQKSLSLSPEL
VLA-4-IgG chimeric protein, sequence (P05556 with tags, fused parts or gaps limits assumed): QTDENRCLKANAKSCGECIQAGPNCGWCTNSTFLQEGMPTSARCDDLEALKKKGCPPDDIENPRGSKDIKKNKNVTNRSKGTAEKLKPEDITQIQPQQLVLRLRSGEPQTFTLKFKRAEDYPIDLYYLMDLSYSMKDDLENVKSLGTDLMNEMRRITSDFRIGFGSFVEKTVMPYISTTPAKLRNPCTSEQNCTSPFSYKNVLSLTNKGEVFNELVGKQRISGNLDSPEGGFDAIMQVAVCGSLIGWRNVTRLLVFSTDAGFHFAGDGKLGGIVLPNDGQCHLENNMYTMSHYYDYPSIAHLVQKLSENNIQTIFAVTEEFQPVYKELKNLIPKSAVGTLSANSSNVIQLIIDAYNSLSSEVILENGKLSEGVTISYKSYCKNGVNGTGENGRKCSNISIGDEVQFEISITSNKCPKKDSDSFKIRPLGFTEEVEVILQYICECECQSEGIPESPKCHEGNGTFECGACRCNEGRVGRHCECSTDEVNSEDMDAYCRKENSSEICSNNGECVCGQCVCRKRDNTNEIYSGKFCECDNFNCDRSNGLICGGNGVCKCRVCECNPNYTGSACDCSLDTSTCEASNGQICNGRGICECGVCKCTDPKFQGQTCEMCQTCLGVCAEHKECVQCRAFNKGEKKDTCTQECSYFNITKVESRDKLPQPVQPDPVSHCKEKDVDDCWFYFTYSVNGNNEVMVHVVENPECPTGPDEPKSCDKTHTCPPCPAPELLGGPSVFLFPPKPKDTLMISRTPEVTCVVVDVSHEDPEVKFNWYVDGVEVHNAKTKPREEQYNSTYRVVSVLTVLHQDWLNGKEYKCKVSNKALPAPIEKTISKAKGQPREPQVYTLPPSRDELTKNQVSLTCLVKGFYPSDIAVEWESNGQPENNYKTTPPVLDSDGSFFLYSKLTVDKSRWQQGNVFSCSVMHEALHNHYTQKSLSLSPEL

COc1cccc(OC)c1C(=O)NCCCC(NC(=O)c1c(Cl)cccc1Cl)C(=O)O (stereo not shown) [Example 143, 2-((2,6-dichlorophenyl)carbonylamino)-5-((2,6-dimethoxyphenyl)carbonylamino)pentanoic acid] was tested, and the IC50 [1, 3] was 13 nM, the “accumulation of eosinophils to auricle induced by application of the antigen” value (Auricular Edema Model) was “inhibited” and the “swelling of ear induced by application of the antigen” value (Auricular Edema Model) was “inhibited”. The “accumulation of eosinophils to the lung” value (Mouse Asthma Model) was “inhibited” and the “progress of airway anaphylaxis” value (Mouse Asthma Model) was “inhibited”.

In the case of O=C(N[C@@H](CCSC[C@H](NC(=O)c1c(Cl)cccc1Cl)C(=O)O)C(=O)O)c1c(Cl)cccc1Cl [Example 180, 4-((2R)-2-((2,6-dichlorophenyl)carbonylamino)-2-carboxyethylthio) (2S)-2-((2,6-dichlorophenyl)carbonylamino)butyric acid], the IC50 ([1]; read-out: Inhibition Activity(IC50 : nM); binding of VLA-4-IgG chimeric protein to immobilized CS-1 peptide; compound preincubated 20 minutes) is reported as 38 nM.

In the case of O=C(Nc1ccn(C[C@H](NC(=O)c2c(Cl)cccc2Cl)C(=O)O)c(=O)n1)c1c(Cl)cccc1Cl [Example 236, (2S)-2-((2,6-dichlorophenyl)carbonylamino)-3-(4-((2,6-dichlorophenyl)carbonylamino)-2-oxohydropyrimidinyl)propionic acid], the “radical scavenger activities relative to 3-(4-((2,6-dichlorophenyl)carbonylamino)phenyl)-2-((6-bromo-2-methylphenyl)carbonylamino)propanoic acid” value (superoxide) is reported as 2 to 5 times, the “influences on the survival rate of the cells relative to 3-(4-((2,6-dichlorophenyl)carbonylamino)phenyl)-2-((6-bromo-2-methylphenyl)carbonylamino)propanoic acid” value [2] is reported as “not more than 1/4” and the “accumulation of eosinophils to the lung” value (Mouse Asthma Model) is reported as “inhibited”. For the same compound, the “progress of airway anaphylaxis” value (Mouse Asthma Model) was “inhibited”.

With Cc1cccc(Br)c1C(=O)N[C@@H](Cn1ccc(NC(=O)c2c(Cl)cccc2Cl)nc1=O)C(=O)O [Example 240, (2S)-3-(4-((2,6-dichlorophenyl)carbonylamino)-2-oxohydropyrimidinyl)-2-((2-bromo-6-methylphenyl)carbonylamino)propionic acid] the “radical scavenger activities relative to 3-(4-((2,6-dichlorophenyl)carbonylamino)phenyl)-2-((6-bromo-2-methylphenyl)carbonylamino)propanoic acid” value (superoxide) was 2 to 5 times and the “influences on the survival rate of the cells relative to 3-(4-((2,6-dichlorophenyl)carbonylamino)phenyl)-2-((6-bromo-2-methylphenyl)carbonylamino)propanoic acid” value [2] was “not more than 1/4”.

Compound “(2R)-3-(((2S)-1-(2-cyclohexylacetyl)pyrrolidin-2-yl)methylthio)-2-(3,3-dimethylbutanoylamino)propionic acid [Example 193]” has an IC50 [1, 3] of 2200 nM.
